Key:
[1] = Cytotoxicity, average over the three human normal cells; type: cell-based; conditions: human, average of HGF, HPC, HPLF; read-out: AVE CC50, human normal cells
Experimental: (§1) Human promyelocytic leukemia [HL-60 (RCB3683)] (purchased from Riken Cell Bank, Tsukuba, Japan) was cultured at 37 °C in RPMI1640 medium (Fujifilm Wako Pure Chemical Co., Osaka, Japan) supplemented with 10% heat (56 °C, 30 min) inactivated FBS (Sigma-Aldrich Inc. St. Louis, MO, USA), 100 U/mL penicillin G, and 100 µg/mL streptomycin sulfate in a humidified 5% CO2 incubator (MCO-170 AICUVD-P, Panasonic Healthcare Co., Ltd., Gunma, Japan). Human oral squamous cell carcinoma (OSCC) cell lines derived from tongue [HSC-2 (RCB1945), HSC-3 (RCB1975), HSC-4 (RCB1902)] (Riken Cell Bank), and human normal oral cells (gingival fibroblasts, HGF; pulp cell, HPC; periodontal ligament fibroblast, HPLF), established from the first premolar extracted tooth in the lower jaw and periodontal tissues of a child, according to the guidelines of Meikai University Ethic Committee (No. A0808), were cultured in DMEM medium (Fujifilm Wako Pure Chemical Co.) supplemented with 10% FBS and antibiotics. The compounds in Series 2–4 were evaluated against HL-60, HSC-2, HSC-3, HSC-4, HGF, HPC, and HPLF cells based on a literature procedure, as described previously. In brief, near confluent cells were incubated in triplicate for 48 h at 37 °C with different concentrations ([…], 6.3, 12.5, 25, 50, 100 µM) of the compounds; then, viable cell numbers were measured using the MTT method. From the dose–response curve, a 50% cytotoxic concentration (CC50) was determined. All samples were dissolved in dimethylsulfoxide (DMSO). The toxicity of DMSO alone was calculated and subtracted. The CC50 values were determined from dose–response curves.

[2] = system: human oral squamous cell carcinoma HSC-2 cells; experiment: Cytotoxicity, MTT method, HSC-2 cells; type: cell-based; conditions: for CC50: Homo sapiens, HSC-2, 48 h, MTT, mean ± SD, read-out: CC50 HSC-2; for SI (selectivity index) HSC-2: average CC50 non-malignant cells / CC50 HSC-2
Experimental: as §1

[3] = system: human oral squamous cell carcinoma HSC-3 cells; experiment: Cytotoxicity, MTT method, HSC-3 cells; type: cell-based; conditions: for CC50: Homo sapiens, HSC-3, 48 h, MTT, mean ± SD, read-out: CC50 HSC-3; for SI (selectivity index) HSC-3: average CC50 non-malignant cells / CC50 HSC-3
Experimental: as §1

[4] = Cytotoxicity, MTT method, HPC non-malignant cells; type: cell-based, human; conditions: human, pulp cells (HPC), non-malignant, mean ± SD
Experimental: as §1

[5] = system: human promyelocytic leukemia HL-60 cells; experiment: Cytotoxicity, MTT method, HL-60 cells; type: cell-based; conditions: for CC50: Homo sapiens, HL-60, 48 h, MTT, mean ± SD, read-out: CC50 HL-60; for SI (selectivity index) HL-60: average CC50 non-malignant cells / CC50 HL-60
Experimental: as §1

[6] = system: human tumour cell lines HL-60, HSC-2, HSC-3, HSC-4; experiment: Cytotoxicity, average over the four human tumour cell lines; type: cell-based; conditions: for CC50: Homo sapiens, average of HL-60, HSC-2, HSC-3, HSC-4, read-out: AVE. CC50, human tumour cell lines; for AVE SI: average of the four SI values; for PSE (potency-selectivity expression): product of reciprocal of average CC50 (neoplastic cells) and average SI times 100; for CC50 values in all four bioassays (range in words): HL-60, HSC-2, HSC-3, HSC-4
Experimental: as §1

[7] = Cytotoxicity, MTT method, HPLF non-malignant cells; type: cell-based, human; conditions: human, periodontal ligament fibroblasts (HPLF), non-malignant, mean ± SD
Experimental: as §1

[8] = system: human oral squamous cell carcinoma HSC-4 cells; experiment: Cytotoxicity, MTT method, HSC-4 cells; type: cell-based; conditions: for CC50: Homo sapiens, HSC-4, 48 h, MTT, mean ± SD, read-out: CC50 HSC-4; for SI (selectivity index) HSC-4: average CC50 non-malignant cells / CC50 HSC-4
Experimental: as §1

[9] = Cytotoxicity, MTT method, HGF non-malignant cells; type: cell-based, human; conditions: human, gingival fibroblasts (HGF), non-malignant, mean ± SD
Experimental: as §1

SMILES	CC50 at 48 h [1] [nM]	CC50 [2] [nM]	SI (selectivity index) HSC-2 [2]	CC50 [3] [nM]	SI (selectivity index) HSC-3 [3]	CC50 at 48 h [4] [nM]	CC50 [5] [nM]	SI (selectivity index) HL-60 [5]	CC50 [6] [nM]	AVE SI [6]	PSE (potency-selectivity expression) [6]	CC50 at 48 h [7] [nM]	CC50 [8] [nM]	SI (selectivity index) HSC-4 [8]	CC50 at 48 h [9] [nM]	CC50 values in all four bioassays (range in words) [6]
O=C1/C(=C/c2ccccc2)CN(CCCN2C/C(=C\c3ccccc3)C(=O)/C(=C/c3ccccc3)C2)C/C1=C\c1ccccc1 [Compound 4]	4000	210 ± 32	19.1	350 ± 110	11.4	3700 ± 2000	180 ± 11	22.2	210	25.2	> 100	5300 ± 610	83 ± 21	48.2	3000 ± 210	
COc1ccc(/C=C2\CN(C(=O)CC(=O)N3C/C(=C\c4ccc(OC)c(OC)c4)C(=O)/C(=C/c4ccc(OC)c(OC)c4)C3)C/C(=C\c3ccc(OC)c(OC)c3)C2=O)cc1OC [Compound 3f]	1500	340 ± 76	4.41	200 ± 140	7.50	1600 ± 78	260 ± 21	5.77	230	7.35		1800 ± 50	128 ± 14	11.7	1100 ± 84	
COc1cc(/C=C2\CN(C(=O)C(=O)N3C/C(=C\c4cc(OC)c(OC)c(OC)c4)C(=O)/C(=C/c4cc(OC)c(OC)c(OC)c4)C3)C/C(=C\c3cc(OC)c(OC)c(OC)c3)C2=O)cc(OC)c1OC [Compound 2g]	570	63 ± 9	9.05	35 ± 6	16.3	280 ± 70	37 ± 2	15.4	60	11.8	> 100	950 ± 12	88 ± 29	6.48	470 ± 140	double-digit nanomolar range
COc1cc(/C=C2\CN(C(=O)CC(=O)N3C/C(=C\c4cc(OC)c(OC)c(OC)c4)C(=O)/C(=C/c4cc(OC)c(OC)c(OC)c4)C3)C/C(=C\c3cc(OC)c(OC)c(OC)c3)C2=O)cc(OC)c1OC [Compound 3g]	190	65 ± 16	2.92	35 ± 5	5.43	180 ± 30	30 ± 0.2	6.33	40	4.92	> 100	300 ± 47	38 ± 9	5.00	93 ± 20	double-digit nanomolar range
O=C1/C(=C/c2ccccc2)CN(C(=O)CC(=O)N2C/C(=C\c3ccccc3)C(=O)/C(=C/c3ccccc3)C2)C/C1=C\c1ccccc1 [Compound 3a]	920	50 ± 1	18.4	46 ± 26	20.0	360 ± 100	46 ± 9	20.0	60	17.4		1300 ± 330	84 ± 5	11.0	1100 ± 10	double-digit nanomolar range
O=C1/C(=C/c2ccc(Cl)c(Cl)c2)CN(C(=O)C(=O)N2C/C(=C\c3ccc(Cl)c(Cl)c3)C(=O)/C(=C/c3ccc(Cl)c(Cl)c3)C2)C/C1=C\c1ccc(Cl)c(Cl)c1 [Compound 2d]	34300	5900 ± 120	5.81	8400 ± 870	4.08	23000 ± 3100	8400 ± 17	4.08	7280	4.83		44000 ± 3200	6400 ± 150	5.36	36000 ± 3100	
Cc1ccc(/C=C2\CN(C(=O)C(=O)N3C/C(=C\c4ccc(C)cc4)C(=O)/C(=C/c4ccc(C)cc4)C3)C/C(=C\c3ccc(C)cc3)C2=O)cc1 [Compound 2e]	45000	1800 ± 250	25.0	4300 ± 1100	10.5	23000 ± 1200	2700 ± 780	16.7	2780	18.0		67000 ± 4500	2300 ± 250	19.6	45000 ± 4600	
O=C1/C(=C/c2ccccc2)CN(C(=O)C(=O)N2C/C(=C\c3ccccc3)C(=O)/C(=C/c3ccccc3)C2)C/C1=C\c1ccccc1 [Compound 2a]	3260	85 ± 13	38.4	150 ± 22	21.7	680 ± 73	110 ± 9	29.6	140	26.5	> 100	5300 ± 500	200 ± 11	16.3	3800 ± 520	
Cc1ccc(/C=C2\CN(C(=O)CC(=O)N3C/C(=C\c4ccc(C)cc4)C(=O)/C(=C/c4ccc(C)cc4)C3)C/C(=C\c3ccc(C)cc3)C2=O)cc1 [Compound 3e]	24700	1600 ± 390	15.4	2200 ± 200	11.2	19000 ± 2700	1400 ± 150	17.6	1780	14.3		35000 ± 4200	1900 ± 150	13.0	20000 ± 1300	
O=C1/C(=C/c2ccc(F)cc2)CN(C(=O)C(=O)N2C/C(=C\c3ccc(F)cc3)C(=O)/C(=C/c3ccc(F)cc3)C2)C/C1=C\c1ccc(F)cc1 [Compound 2b]	1500	37 ± 9	40.5	66 ± 8	22.7	1400 ± 110	37 ± 17	40.5	40	37.3		1900 ± 360	33 ± 9	45.5	1200 ± 100	double-digit nanomolar range
COc1ccc(/C=C2\CN(C(=O)C(=O)N3C/C(=C\c4ccc(OC)c(OC)c4)C(=O)/C(=C/c4ccc(OC)c(OC)c4)C3)C/C(=C\c3ccc(OC)c(OC)c3)C2=O)cc1OC [Compound 2f]	12500	420 ± 25	29.8	230 ± 97	54.4	2400 ± 700	190 ± 26	65.8	250	57.0		11000 ± 980	160 ± 24	78.1	24000 ± 1100	
COc1cc(/C=C/C(=O)CC(=O)/C=C/c2ccc(O)c(OC)c2)ccc1O [Curcumin, reference compound]	45300	10000 ± 810	4.53	16000 ± 2700	2.83	34000 ± 6800	7800 ± 580	5.81	12000	4.10		32000 ± 6400	14000 ± 3200	3.24	70000 ± 12000	
